Measurements reported in patent US20190008149A1, “HERBICIDAL COMPOSITIONS CONTAINING 4-AMINO-3-CHLORO-6-(4-CHLORO-2-FLUORO-3-METHOXYPHENYL) PYRIDINE-2-CARBOXYLIC ACID OR A DERIVATIVE THEREOF AND A CELL MEMBRANE DISRUPTOR HERBICIDE OR A DERIVATIVE THEREOF” (Dow AgroSciences LLC, priority 2015, published 2019).
Where “and” joins values, the source holds several entries; their conditions need not be identical. Identical values can stand only once.

Tested on: ERISS=Conyza species (fleabane, ERISS)
Assay: Field trial, post-emergence foliar application, percent weed control visually rated
Type: in vivo
From the text: Treatments consisted of the methyl ester of 4-amino-3-chloro-6-(4-chloro-2-fluoro-3-methoxyphenyl)pyridine-2-carboxylic acid (Cmpd 1) tankmixed with saflufenacil or paraquat. The form of compound of formula (I) was applied on an acid equivalent basis, and saflufenacil and paraquat were applied on an active ingredient basis. Saflufenacil was applied as a commercial formulation containing 700 grams per kilogram (g/kg). Paraquat was applied as a commercial formulation containing 200 g/L.
Field trials were conducted under standard field conditions. Plot sizes varied from 2 meters (m) wide by 5 m long. Treatments were applied with small plot backpack sprayers, using pressurized carbon dioxide (CO2) as propellant. Pressure varied from 40-45 pounds per square inch (PSI), with spray tips typically of a Flat Fan type applying water diluent at 100 liters per hectare (L/ha). Boom size was 2 m in width. Weed sizes varied, but all treatments were applied as post-emergence treatments to weeds from 2 leaf to 2 tiller growth stages varying from 2-15 inches in height. No additional adjuvant was mixed with the treatments applied in the field.
Results in Tables 1 to 2 are field trial results for foliar applied compositions. The values reported are percent (%) control visually rated. The predicted percent (%) weed contol was determined using Colby's equation.
ERISS=Conyza species (fleabane, ERISS) g ae/ha=grams acid equivalent per hectare g ai/ha=grams active ingredient per hectare Mean % weed control=observed value of percent (%) control rated visually Predicted mean % weed control=expected value of percent (%) control as calculated by Colby's equation Cmpd 1=methyl 4-amino-3-chloro-6-(4-chloro-2-fluoro-3-methoxyphenyl)pyridine-2-carboxylate, halauxifen-methyl, or ARYLEX® DAA=days after application

Compound	Mean % weed control (Cmpd 1 alone, 5 g ae/ha, 17DAA) [%]	Mean % weed control (Cmpd 1 alone, 5 g ae/ha, 28DAA)	Mean % weed control (Cmpd 1 alone, 5 g ae/ha, 43DAA)	Mean % weed control (Saflufenacil alone, 49 g ai/ha, 17DAA) [%]	Mean % weed control (Saflufenacil alone, 49 g ai/ha, 28DAA) [%]
COC(=O)c1nc(-c2ccc(Cl)c(OC)c2F)cc(N)c1Cl [Cmpd 1, methyl 4-amino-3-chloro-6-(4-chloro-2-fluoro-3-methoxyphenyl)pyridine-2-carboxylate]	33.75	33.75% and 46.25%	40% and 57.5%	–	–
CC(C)N(C)S(=O)(=O)NC(=O)c1cc(-n2c(=O)cc(C(F)(F)F)n(C)c2=O)c(F)cc1Cl [Saflufenacil, 2-chloro-5-[3,6-dihydro-3-methyl-2,6-dioxo-4-(trifluoromethyl)-1(2H)-pyrimidinyl]-4-fluoro-N-[[methyl(1-methylethyl)amino]sulfonyl]benzamide, reference compound]	–	–	–	66.25	66.25
